# Reference: ChEMBL document CHEMBL5113401, “Novel 1,3,4-oxadiazole chalcogen analogues: Synthesis and cytotoxic activity” (Eur J Med Chem, 2022)
# Active and inactive are the calls of the source. The calls are words filed in the database; no cut-off is given here.
# Tests used:
# Tubulin (Homo sapiens) [1] = biological target: T1, Tubulin (Homo sapiens) (UniProt P68371+Q9H4B7+P0DPH7+P68366+Q13509+Q71U36+P04350+Q3ZCM7+P07437+P68363+Q9BQE3+Q6PEY2+Q13885+Q9BVA1+Q9BUF5); test: Inhibition of tubulin polymerization in human HeLa cells assessed as abnormal microtubule network at 0.5 uM incubated for 6 hrs by DAPI staining based fluorescence microscopic analysis; type: cell-based
# MCF7 = test: Antiproliferative activity against human MCF7 cells assessed as inhibition of cell growth incubated for 48 hrs by XTT assay; type: functional, cell-based; conditions: MCF7, 48 h
# HeLa [2] = test: Induction of apoptosis in human HeLa cells assessed as viable cells at 1 uM incubated for 24 hrs by Annexin V-FITC/7-AAD staining based flow cytometric analysis (reference value: 85.6 +/- 1.061%); type: functional; conditions: read-out: Activity
# HeLa [3] = test: Induction of apoptosis in human HeLa cells assessed as early apoptotic cells at 1 uM incubated for 24 hrs by Annexin V-FITC/7-AAD staining based flow cytometric analysis (reference value: 2.7 +/- 0.424 %); type: functional
# PC-3 [4] = test: Induction of cell cycle arrest in human PC-3 cells assessed as accumulation of cells at G2/M phase at 1 uM incubated for 12 hrs by FACS flow cytometry analysis (reference value: 20.74 +/- 1.95 %); type: functional
# HeLa [5] = test: Inhibition of colony formation in human HeLa cells at IC50 incubated for 2 weeks with culture medium replacement for every 3 days by crystal violet staining based analysis; type: functional, cell-based
# PC-3 [6] = test: Induction of cell cycle arrest in human PC-3 cells assessed as accumulation of cells at G2/M phase at 1 uM incubated for 6 hrs by FACS flow cytometry analysis (reference value: 20.74 +/- 1.93 %); type: functional
# HFF-1 = test: Cytotoxicity against HFF-1 cells assessed as reduction in cell viability at 1 to 2 uM incubated for 48 hrs by XTT assay; type: toxicity, cell-based; conditions: human, hff-1, 48 h, dose 1-2 µM
# PC-3 [7] = test: Induction of cell cycle arrest in human PC-3 cells assessed as accumulation of cells at S phase at 1 uM incubated for 12 hrs by FACS flow cytometry analysis (reference value: 35.06 +/- 1.36 %); type: functional
# HeLa [8] = test: Induction of cell cycle arrest in human HeLa cells assessed as accumulation of cells at G1 phase at 1 uM incubated for 6 hrs by FACS flow cytometry analysis (reference value: 69.94 +/- 1.71 %); type: functional
# HeLa [9] = test: Induction of apoptosis in human HeLa cells assessed as dead cells at 1 uM incubated for 24 hrs by Annexin V-FITC/7-AAD staining based flow cytometric analysis (reference value: 0.6 +/- 0.707 %); type: functional
# PC-3 [10] = test: Induction of cell cycle arrest in human PC-3 cells assessed as accumulation of cells at G1 phase at 1 uM incubated for 12 hrs by FACS flow cytometry analysis (reference value: 44.2 +/- 2.01 %); type: functional
# PC-3 [11] = test: Induction of cell cycle arrest in human PC-3 cells assessed as accumulation of cells at G1 phase at 1 uM incubated for 6 hrs by FACS flow cytometry analysis (reference value: 44.2 +/- 2.21 %); type: functional
# HeLa [12] = test: Induction of cell cycle arrest in human HeLa cells assessed as accumulation of cells at G2/M phase at 1 uM incubated for 6 hrs by FACS flow cytometry analysis (reference value: 12.66 +/- 0.88 %); type: functional
# PC-3 [13] = test: Induction of cell cycle arrest in human PC-3 cells assessed as accumulation of cells at S phase at 1 uM incubated for 6 hrs by FACS flow cytometry analysis (reference value: 35.06 +/- 1.85 %); type: functional
# HeLa [14] = test: Antiproliferative activity against human HeLa cells assessed as inhibition of cell growth incubated for 48 hrs by XTT assay; type: functional, cell-based
# HeLa [15] = test: Induction of cell cycle arrest in human HeLa cells assessed as accumulation of cells at G2/M phase at 1 uM incubated for 18 hrs by FACS flow cytometry analysis (reference value: 12.66 +/- 0.92 %); type: functional
# HeLa [16] = test: Induction of cell cycle arrest in human HeLa cells assessed as accumulation of cells at S phase at 1 uM incubated for 6 hrs by FACS flow cytometry analysis (reference value: 17.41 +/- 0.96 %); type: functional
# HeLa [17] = test: Induction of apoptosis in human HeLa cells assessed as late apoptotic cells at 1 uM incubated for 24 hrs by Annexin V-FITC/7-AAD staining based flow cytometric analysis (reference value: 11.1 +/- 0.778 %); type: functional
# NB1 = test: Cytotoxicity against human NB1 cells immortalized with hTERT plasmid assessed as reduction in cell viability at 1 to 2 uM incubated for 48 hrs by XTT assay; type: toxicity, cell-based; conditions: nb1, 48 h, dose 1-2 µM
# PC-3 [18] = test: Antiproliferative activity against human PC-3 cells assessed as inhibition of cell growth incubated for 48 hrs by XTT assay; type: functional, cell-based; conditions: PC-3, 48 h
# HeLa [19] = test: Induction of cell cycle arrest in human HeLa cells assessed as accumulation of cells at G1 phase at 1 uM incubated for 18 hrs by FACS flow cytometry analysis (reference value: 69.94 +/- 1.25 %); type: functional
# HeLa [20] = test: Induction of cell cycle arrest in human HeLa cells assessed as accumulation of cells at S phase at 1 uM incubated for 18 hrs by FACS flow cytometry analysis (reference value: 17.41 +/- 1.16 %); type: functional
# PC-3 [21] = test: Inhibition of colony formation in human PC-3 cells at IC50 incubated for 2 weeks with culture medium replacement for every 3 days by crystal violet staining based analysis; type: functional, cell-based
# Tubulin (Homo sapiens) [22] = biological target: T1, Tubulin (Homo sapiens); test: Inhibition of tubulin polymerization in human HeLa cells assessed as aberrations in mitotic spindle and nucleus at 0.5 uM incubated for 6 hrs by DAPI staining based fluorescence microscopic analysis; type: cell-based
# Tubulin (Homo sapiens) [23] = biological target: T1, Tubulin (Homo sapiens); test: Inhibition of tubulin polymerization in human HeLa cells assessed as irregular cell morphology at 0.5 uM incubated for 6 hrs by DAPI staining based fluorescence microscopic analysis
SMILES,inhibition (Tubulin (Homo sapiens) [1]),IC50 (MCF7) [nM],viability at 1 µM (HeLa [2]) [%],Activity (HeLa [3]) [%],Activity (PC-3 [4]) [%],inhibition (HeLa [5]),Activity (PC-3 [6]) [%],Activity (HFF-1),Activity (PC-3 [7]) [%],Activity (HeLa [8]) [%],Activity (HeLa [9]) [%],Activity (PC-3 [10]) [%],Activity (PC-3 [11]) [%],Activity (HeLa [12]) [%],Activity (PC-3 [13]) [%],IC50 (HeLa [14]) [nM],Activity (HeLa [15]) [%],Activity (HeLa [16]) [%],Activity (HeLa [17]) [%],IC50 (PC-3 [18]) [nM],also measured
Cc1[nH]c2c(c1-c1nnc(-c3cccc(Cl)c3)[se]1)Cc1ccccc1-2,Active,216,80.1,2.7,89.48,Active,34.87,Non-Toxic,8.65,27.87,1.8,1.87,10.43,23.63,54.7,83,89.4,48.5,15.4,548,Activity (NB1): Non-Toxic; Activity (HeLa [19]): 1.15%; Activity (HeLa [20]): 9.44%; inhibition (PC-3 [21]): Active; inhibition (Tubulin (Homo sapiens) [22]): Active; inhibition (Tubulin (Homo sapiens) [23]): Active
COc1ccc(-c2nnc(-c3c(C)[nH]c4c3Cc3ccccc3-4)s2)cc1,,> 10000,,,,,,,,,,,,,,> 10000,,,,> 10000,
COc1ccc(-c2nnc(-c3c(C)[nH]c4c3Cc3ccccc3-4)[se]2)cc1,,> 10000,,,,,,,,,,,,,,> 10000,,,,> 10000,
Cc1[nH]c2c(c1-c1nnc(-c3ccccc3Cl)[se]1)Cc1ccccc1-2,Active,91,24.6,11.9,93.66,Active,31.52,Non-Toxic,5.7,41.62,5.3,0.64,13.15,23.09,55.33,5,85.47,35.29,58.2,67,Activity (NB1): Non-Toxic; Activity (HeLa [19]): 2.03%; Activity (HeLa [20]): 12.5%; inhibition (PC-3 [21]): Active; inhibition (Tubulin (Homo sapiens) [22]): Active; inhibition (Tubulin (Homo sapiens) [23]): Active
Cc1[nH]c2c(c1-c1nnc(-c3ccc(C(C)(C)C)cc3)[se]1)Cc1ccccc1-2,,> 10000,,,,,,,,,,,,,,> 10000,,,,> 10000,
Cc1[nH]c2c(c1-c1nnc(-c3ccccc3Cl)s1)Cc1ccccc1-2,Active,468,44.8,31.9,92.74,Active,37.68,Non-Toxic,5.55,27.25,5.9,1.71,11.13,3.84,51.2,145,88.99,68.91,17.4,176,Activity (NB1): Non-Toxic; Activity (HeLa [19]): 1.49%; Activity (HeLa [20]): 9.52%; inhibition (PC-3 [21]): Active; inhibition (Tubulin (Homo sapiens) [22]): Active; inhibition (Tubulin (Homo sapiens) [23]): Active
COc1cc(-c2nnc(-c3c(C)[nH]c4c3Cc3ccccc3-4)[se]2)cc(OC)c1OC,,> 10000,,,,,,,,,,,,,,> 10000,,,,> 10000,
Cc1[nH]c2c(c1-c1nnc(-c3ccccc3)[se]1)Cc1ccccc1-2,Active,176,68,8.9,92.31,Active,34.99,Non-Toxic,6.68,24.24,3.4,1.01,8.76,5.51,56.26,9,88.58,70.25,19.7,72,Activity (NB1): Non-Toxic; Activity (HeLa [19]): 1.06%; Activity (HeLa [20]): 10.36%; inhibition (PC-3 [21]): Active; inhibition (Tubulin (Homo sapiens) [22]): Active; inhibition (Tubulin (Homo sapiens) [23]): Active
